Data as given in patent publication US11873298B2, “Compounds and uses thereof” (JANSSEN PHARMACEUTICA NV, priority 2017, dated 2024).

Key:
Type in all cases: cell-based
[1] = target: T1, Ole1 (Saccharomyces cerevisiae, UniProt P21147); experiment: Growth inhibition of yeast strain expressing Ole1 as sole desaturase; conditions: yeast strain expressing Ole1 as sole desaturase
T1 construct: expressed in transfected cells; host or cells: S. cerevisiae ole1Δ strain (W303 pdr1Δ pdr3Δ background), plasmid pRS316 with TDH3 promoter and CYC1 terminator
T1 sequence (P21147 1-510): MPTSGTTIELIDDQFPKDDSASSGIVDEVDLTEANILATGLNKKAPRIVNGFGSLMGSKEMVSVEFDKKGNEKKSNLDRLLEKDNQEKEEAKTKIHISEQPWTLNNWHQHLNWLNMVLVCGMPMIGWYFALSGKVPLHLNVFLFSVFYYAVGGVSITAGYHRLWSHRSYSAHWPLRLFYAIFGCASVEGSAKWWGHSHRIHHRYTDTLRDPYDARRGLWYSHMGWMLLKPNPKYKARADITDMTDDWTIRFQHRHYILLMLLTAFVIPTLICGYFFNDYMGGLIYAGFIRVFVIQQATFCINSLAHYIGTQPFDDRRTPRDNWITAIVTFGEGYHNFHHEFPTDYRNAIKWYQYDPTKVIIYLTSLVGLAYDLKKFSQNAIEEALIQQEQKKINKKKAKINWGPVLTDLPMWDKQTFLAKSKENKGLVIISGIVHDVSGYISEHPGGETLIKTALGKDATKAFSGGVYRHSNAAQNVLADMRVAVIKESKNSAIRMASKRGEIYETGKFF
Outline: (§1)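 Plasmid-complemented ole1Δ yeast, drug-pump deleted (pdr1Δ pdr3Δ), depend solely on the introduced Ole1, SCD1 or SCD5 desaturase. Compounds are added from DMSO to cells in uracil-free galactose medium, 2× density 0.02, and OD600 is read after 24 h or 40 h respectively.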

[2] = target: T2, SCD5 (Homo sapiens, UniProt Q86SK9); experiment: Growth inhibition of humanized yeast strain expressing SCD5 as sole desaturase; conditions: humanized yeast strain expressing SCD5
T2 construct: host or cells: S. cerevisiae ole1Δ strain (W303 pdr1Δ pdr3Δ background), plasmid pRS316 with TDH3 promoter and CYC1 terminator
T2 sequence (Q86SK9 1-330): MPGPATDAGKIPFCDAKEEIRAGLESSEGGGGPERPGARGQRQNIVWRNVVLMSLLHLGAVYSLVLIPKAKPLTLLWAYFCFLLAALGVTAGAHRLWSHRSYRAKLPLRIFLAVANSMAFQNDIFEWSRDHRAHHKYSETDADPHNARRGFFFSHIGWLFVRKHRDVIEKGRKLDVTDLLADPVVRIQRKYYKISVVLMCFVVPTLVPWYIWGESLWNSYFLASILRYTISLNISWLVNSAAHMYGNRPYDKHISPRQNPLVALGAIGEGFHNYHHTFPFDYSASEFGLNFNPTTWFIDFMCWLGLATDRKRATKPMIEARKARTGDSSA
Outline: as §1

[3] = target: T3, SCD1 (Homo sapiens, UniProt O00767); experiment: Growth inhibition of humanized yeast strain expressing SCD1 as sole desaturase; conditions: humanized yeast strain expressing SCD1
T3 construct: host or cells: S. cerevisiae ole1Δ strain (W303 pdr1Δ pdr3Δ background), plasmid pRS316 with TDH3 promoter and CYC1 terminator
T3 sequence (O00767 1-359): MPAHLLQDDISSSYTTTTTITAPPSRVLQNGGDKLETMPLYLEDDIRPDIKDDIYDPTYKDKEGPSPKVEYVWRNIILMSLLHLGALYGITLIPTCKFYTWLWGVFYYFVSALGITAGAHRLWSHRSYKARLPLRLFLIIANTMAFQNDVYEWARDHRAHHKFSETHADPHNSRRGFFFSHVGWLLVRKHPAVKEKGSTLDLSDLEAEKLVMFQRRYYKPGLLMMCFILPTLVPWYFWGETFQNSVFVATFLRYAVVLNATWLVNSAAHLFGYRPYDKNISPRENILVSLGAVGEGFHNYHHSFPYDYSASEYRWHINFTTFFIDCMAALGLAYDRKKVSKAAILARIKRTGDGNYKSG
Outline: as §1

Row | SMILES | IC50 [1] | OLE1 % Max Inhibition [1] | IC50 [2] | SCD5 % Max Inhibition [2] | IC50 [3] | SCD1 % Max Inhibition [3]
1 | Cc1nn(C)c2cc(-c3noc(N4C[C@H]5CN(C(=O)CNC(=O)c6ccccc6)C[C@H]5C4)n3)ccc12 [Compound 207] | > 45 µM | 5.39% | > 45 µM | 72.56% | > 45 µM | 86.42%
2 | Cn1ncc2ccc(-c3noc(C4CCN(C(=O)c5ccnc(-c6ccccc6)c5)CC4)n3)cc21 [Compound 208] | > 45 µM | 96.63% | > 45 µM | 5.68% | > 45 µM | 14.04%
3 | Cc1nn(C)c2cc(-c3noc(C4CCN(C(=O)CNC(=O)c5ccccc5)C4)n3)ccc12 (stereo not shown) [Compound 209] | > 45 µM | 3.74% | > 45 µM | 78.88% | > 45 µM | 101.51%
4 | Cc1nn(C)c2cc(-c3noc(N4CCC(C(=O)N5CCO[C@@H](c6ccccc6)C5)CC4)n3)ccc12 [Compound 210] | > 45 µM | 2.27% | > 45 µM | 3.39% | > 45 µM | 30.48%
5 | Cc1nn(C)c2cc(-c3noc(N4CCC(C(=O)N5CCO[C@H](c6ccccc6)C5)CC4)n3)ccc12 [Compound 211] | > 45 µM | 2.65% | > 45 µM | 6.95% | > 45 µM | 39.99%
6 | Cc1nn(C)c2cc(-c3noc(N4CC5(CN(C(=O)CNC(=O)c6ccccc6)C5)C4)n3)ccc12 [Compound 212] | > 45 µM | 100.82% | > 45 µM | 76.28% | > 45 µM | 76.79%
7 | Cn1ncc2ccc(NC(=O)C3CCN(C(=O)C4CC(=O)N(c5ccccc5)C4)CC3)cc21 (stereo not shown) [Compound 213] | > 45 µM | 94.72% | > 45 µM | 85.33% | > 45 µM | 86.35%
8 | Cn1c(=O)n(C)c2cc(-c3noc(C4CCN(C(=O)[C@@H](CO)NC(=O)c5ccccc5)CC4)n3)ccc21 [Compound 214] | > 45 µM | 15.08% | > 45 µM | 74.58% |  | 65.73%
9 | Cc1ncc2ccc(-c3noc(C4CCN(C(=O)CNC(=O)c5ccccc5)CC4)n3)cn12 [Compound 215] | > 45 µM | 48.68% | > 45 µM | 78.96% | > 45 µM | 88.23%
10 | Cc1ncc2ccc(-c3noc(C4CCN(C(=O)C5CC(=O)N(c6ccccc6)C5)CC4)n3)cn12 (stereo not shown) [Compound 216] | 35.1 µM | 61.84% | > 45 µM | 75.59% | > 45 µM | 83.82%
11 | CCOc1ccc(-c2noc(N3CCC(C(=O)N4CCO[C@@H](c5ccccc5)C4)CC3)n2)cc1OC [Compound 217] | > 45 µM | 10.39% | > 45 µM | 12.62% | 36.9 µM | 57.90%
12 | CCOc1ccc(-c2noc(N3CCC(C(=O)N4CCO[C@H](c5ccccc5)C4)CC3)n2)cc1OC [Compound 218] | > 45 µM | 4.63% | > 45 µM | 25.15% | > 45 µM | 48.31%
13 | Cc1nn(C)c2cc(-c3noc(N4CCN(C(=O)CN5Cc6ccccc6C5=O)CC4)n3)ccc12 [Compound 219] | > 45 µM | 3.50% | > 45 µM | 89.83% | > 45 µM | 95.22%
14 | O=C(C1CC(=O)N(c2ccccc2)C1)N1CCC(c2nc(-c3ccc4c(c3)COC4)no2)CC1 (stereo not shown) [Compound 220] | > 45 µM | 3.10% | > 45 µM | 13.65% | > 45 µM | 87.27%
15 | COc1ccc(-c2nccc(C3CCN(C(=O)CNC(=O)c4ccccc4)CC3)n2)cc1OC [Compound 221] | > 45 µM | 113.54% | > 45 µM | 93.18% | > 45 µM | 100.56%
16 | Cc1nn(C)c2cc(-c3noc(C4CCN(C(=O)CNC(=O)c5ccsc5)CC4)n3)ccc12 [Compound 222] | > 45 µM | 3.59% | > 45 µM | 1.92% | > 45 µM | 40.42%
17 | O=C(CN1Cc2ccccc2C1=O)N1CCC(c2nc(-c3ccc4c(c3)COC4)no2)CC1 [Compound 223] | > 45 µM | 2.22% | 41 µM | 67.37% | 40.6 µM | 68.23%
18 | CCOc1ccc(-c2noc(N3CCN(C(=O)CN4Cc5ccccc5C4=O)CC3)n2)cc1OC [Compound 225] | > 45 µM | 20.97% | > 45 µM | 88.95% | > 45 µM | 94.06%
19 | Cc1nn(C)c2cc(-c3noc(C4CCN(C(=O)CNC(=O)c5ccsn5)CC4)n3)ccc12 [Compound 226] | > 45 µM | 1.24% | > 45 µM | 0.69% | > 45 µM | 33.20%
20 | Cc1nn(C)c2cc(-c3noc(C4(C)CCN(C(=O)CNC(=O)c5ccccc5)CC4)n3)ccc12 [Compound 227] | > 45 µM | 1.24% | > 45 µM | 6.17% | 38.3 µM | 63.76%
21 | CC(C)n1ncc2cc(-c3noc(C4CCN(C(=O)CNC(=O)c5ccccc5)CC4)n3)ccc21 [Compound 228] | > 45 µM | 21.30% | > 45 µM | 2.72% |  | 51.80%
22 | CC(C)n1cc2cc(-c3noc(C4CCN(C(=O)CNC(=O)c5ccccc5)CC4)n3)ccc2n1 [Compound 229] | > 45 µM | 89.56% | > 45 µM | 71.18% | > 45 µM | 66.51%
23 | Cn1c(=O)n(C)c2cc(-c3noc(C4CCN(C(=O)CNC(=O)c5ccccn5)CC4)n3)ccc21 [Compound 230] | > 45 µM | 2.63% | > 45 µM | 44.00% | > 45 µM | 78.48%
24 | O=C(C1CC(=O)N(c2ccccc2)C1)N1CCC(c2nc(N3CC4(COC4)C3)no2)CC1 (stereo not shown) [Compound 231] | > 45 µM | 29.53% | > 45 µM | 3.11% | > 45 µM | 80.00%
25 | Cc1nn(C)c2cc(-c3nsc(C4CCN(C(=O)CNC(=O)c5ccccn5)CC4)n3)ccc12 [Compound 232] | > 45 µM | 4.20% | 41.1 µM | 51.17% | > 45 µM | 81.04%
26 | Cn1c(=O)n(C)c2cc(-c3noc(C4CCN(C(=O)CNC(=O)c5cccnc5)CC4)n3)ccc21 [Compound 233] | > 45 µM | 18.46% | > 45 µM | 74.91% | > 45 µM | 73.65%
